# Measurements: ChEMBL document CHEMBL5126518, “Quercetin derivatives: Drug design, development, and biological activities, a review” (Eur J Med Chem, 2022)
# Key:
# Assay type in all cases: functional
# Candida albicans [1] = experiment: Antifungal activity against Candida albicans 10/15 assessed as fungal growth inhibition measured after 24 hrs by microdilution assay
# Candida albicans [2] = experiment: Antibiofilm activity against Candida albicans 475/15 assessed as inhibition of biofilm formation measured after 24 hrs by crystal violet staining based analysis relative to control; parameters: scale not given: the % may be the effect or the level left
# Candida albicans [3] = experiment: Antifungal activity against Candida albicans 527/14 assessed as fungal growth inhibition measured after 24 hrs by microdilution assay
# Candida albicans [4] = experiment: Antifungal activity against Candida albicans 475/15 assessed as fungal growth inhibition measured after 24 hrs by microdilution assay
# Candida albicans [5] = experiment: Antifungal activity against Candida albicans 13/15 assessed as fungal growth inhibition measured after 24 hrs by microdilution assay
smiles,measurement,setting,value
O=c1c(O[C@@H]2O[C@H](CO)[C@@H](O)[C@H](O)[C@H]2O)c(-c2ccc(O)c(O)c2)oc2cc(O)cc(O)c12 [ISOQUERCETIN],MIC,Candida albicans [1],37.5 µg/mL
same,Activity,Candida albicans [2],76%
same,MIC,Candida albicans [3],37.5 µg/mL
same,MIC,Candida albicans [4],37.5 µg/mL
same,MIC,Candida albicans [5],37.5 µg/mL
